Legend:
Test in all cases: Kinase inhibitory activity profiling of RI-962@10 µM (406 kinases, Eurofins)
Type in all cases: biochemical
[1] = biological target: panel of human kinases (kinase named in endpoint) (Homo sapiens, UniProt P42685); conditions: 10 µM; read-out: Activity (%), PTK5(h)
How it was run: (§1)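 Radiometric filter-binding kinase assays: enzyme preincubated 15 min with compound in 8 mM MOPS pH 7.0, 0.2 mM EDTA, 250 μM peptide substrate, 10 mM magnesium acetate, 10 μM [γ-33P]-ATP. Reaction started with Mg/ATP, run 40 min at room temperature, stopped with phosphoric acid; 33P incorporation read by scintillation counting. Other kinases by similar protocols.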

[2] = biological target: panel of human kinases (kinase named in endpoint) (Homo sapiens, UniProt Q9H2K8); conditions: 10 µM; read-out: Activity (%), TAO3(h)
How it was run: as §1

[3] = biological target: panel of human kinases (kinase named in endpoint) (Homo sapiens, UniProt Q52WX2); conditions: 10 µM; read-out: Activity (%), SBK1(h)
How it was run: as §1

[4] = biological target: panel of human kinases (kinase named in endpoint) (Homo sapiens, UniProt Q9HC98); conditions: 10 µM; read-out: Activity (%), NEK6(h)
Sequence of panel of human kinases (kinase named in endpoint) (Homo sapiens, UniProt Q9HC98) (Q9HC98 whole entry): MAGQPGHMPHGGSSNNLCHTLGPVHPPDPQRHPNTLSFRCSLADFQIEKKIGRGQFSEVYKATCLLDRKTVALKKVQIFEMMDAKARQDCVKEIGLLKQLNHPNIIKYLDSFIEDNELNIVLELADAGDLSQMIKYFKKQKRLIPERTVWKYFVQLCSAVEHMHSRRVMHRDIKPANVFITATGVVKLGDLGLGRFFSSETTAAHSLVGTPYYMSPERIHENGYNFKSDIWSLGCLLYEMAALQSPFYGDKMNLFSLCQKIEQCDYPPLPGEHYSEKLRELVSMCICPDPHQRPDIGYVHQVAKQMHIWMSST
How it was run: as §1

[5] = biological target: panel of human kinases (kinase named in endpoint) (Homo sapiens, UniProt Q08881); conditions: 10 µM; read-out: Activity (%), Itk(h)
How it was run: as §1

[6] = biological target: panel of human kinases (kinase named in endpoint) (Homo sapiens, UniProt Q13976); conditions: 10 µM; read-out: Activity (%), PKG1α(h)
How it was run: as §1

[7] = biological target: panel of human kinases (kinase named in endpoint) (Homo sapiens, UniProt P10721, D816V); conditions: 10 µM; read-out: Activity (%), cKit(D816V)(h)
How it was run: as §1

[8] = biological target: panel of human kinases (kinase named in endpoint) (Homo sapiens, UniProt O94804); conditions: 10 µM; read-out: Activity (%), LOK(h)
Sequence of panel of human kinases (kinase named in endpoint) (Homo sapiens, UniProt O94804) (O94804 whole entry): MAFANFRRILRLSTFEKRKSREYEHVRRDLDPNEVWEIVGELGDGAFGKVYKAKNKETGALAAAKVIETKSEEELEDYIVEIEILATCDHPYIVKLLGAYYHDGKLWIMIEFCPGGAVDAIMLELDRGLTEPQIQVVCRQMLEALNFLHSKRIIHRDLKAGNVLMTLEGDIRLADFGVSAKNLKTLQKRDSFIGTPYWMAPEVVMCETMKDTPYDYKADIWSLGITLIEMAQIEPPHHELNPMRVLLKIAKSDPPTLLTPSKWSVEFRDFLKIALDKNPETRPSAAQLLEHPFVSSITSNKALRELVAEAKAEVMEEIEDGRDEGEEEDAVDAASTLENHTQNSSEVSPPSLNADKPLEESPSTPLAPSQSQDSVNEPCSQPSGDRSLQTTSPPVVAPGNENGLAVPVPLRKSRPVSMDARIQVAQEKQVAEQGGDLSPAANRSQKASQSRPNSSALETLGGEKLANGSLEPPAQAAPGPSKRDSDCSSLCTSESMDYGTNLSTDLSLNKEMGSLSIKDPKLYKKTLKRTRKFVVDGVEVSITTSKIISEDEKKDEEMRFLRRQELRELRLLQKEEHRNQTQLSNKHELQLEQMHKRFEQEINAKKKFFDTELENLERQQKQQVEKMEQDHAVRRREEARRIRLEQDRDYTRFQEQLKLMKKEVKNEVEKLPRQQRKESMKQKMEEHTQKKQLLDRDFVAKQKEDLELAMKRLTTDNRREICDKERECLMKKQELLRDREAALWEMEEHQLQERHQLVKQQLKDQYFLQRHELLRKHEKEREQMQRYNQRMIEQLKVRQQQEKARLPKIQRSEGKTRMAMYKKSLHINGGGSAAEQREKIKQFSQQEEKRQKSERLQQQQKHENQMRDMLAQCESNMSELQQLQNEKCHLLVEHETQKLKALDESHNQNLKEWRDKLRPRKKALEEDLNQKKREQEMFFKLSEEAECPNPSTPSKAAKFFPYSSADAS
How it was run: as §1

[9] = biological target: panel of human kinases (kinase named in endpoint) (Homo sapiens, UniProt O00141); conditions: 10 µM; read-out: Activity (%), SGK(h)
How it was run: as §1

[10] = biological target: panel of human kinases (kinase named in endpoint) (Homo sapiens, UniProt Q15139); conditions: 10 µM; read-out: Activity (%), PKCμ(h)
How it was run: as §1

[11] = biological target: panel of human kinases (kinase named in endpoint) (Homo sapiens, UniProt Q96QT4); conditions: 10 µM; read-out: Activity (%), ChaK1(h)
How it was run: as §1

[12] = biological target: panel of human kinases (kinase named in endpoint) (Homo sapiens, UniProt O75747); conditions: 10 µM; read-out: Activity (%), PI3KC2g(h)
How it was run: as §1

[13] = biological target: panel of human kinases (kinase named in endpoint) (Homo sapiens, UniProt O43781); conditions: 10 µM; read-out: Activity (%), DYRK3(h)
Sequence of panel of human kinases (kinase named in endpoint) (Homo sapiens, UniProt O43781) (O43781 whole entry): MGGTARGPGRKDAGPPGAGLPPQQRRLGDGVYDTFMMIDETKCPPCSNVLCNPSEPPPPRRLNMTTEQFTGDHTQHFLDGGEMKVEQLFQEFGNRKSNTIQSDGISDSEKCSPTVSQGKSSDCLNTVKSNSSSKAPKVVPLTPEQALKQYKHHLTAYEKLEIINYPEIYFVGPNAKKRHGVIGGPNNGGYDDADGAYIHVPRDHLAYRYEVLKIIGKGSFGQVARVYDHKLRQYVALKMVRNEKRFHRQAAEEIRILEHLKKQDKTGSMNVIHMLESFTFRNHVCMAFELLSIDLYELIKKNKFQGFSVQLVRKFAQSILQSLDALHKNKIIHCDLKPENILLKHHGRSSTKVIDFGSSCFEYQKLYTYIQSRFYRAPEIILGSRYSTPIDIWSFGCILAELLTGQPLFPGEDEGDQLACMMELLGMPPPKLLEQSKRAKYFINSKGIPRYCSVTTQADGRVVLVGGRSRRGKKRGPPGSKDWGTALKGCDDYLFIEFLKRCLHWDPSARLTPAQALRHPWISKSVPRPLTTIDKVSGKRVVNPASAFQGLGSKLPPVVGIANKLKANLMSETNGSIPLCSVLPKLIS
How it was run: as §1

[14] = biological target: panel of human kinases (kinase named in endpoint) (Homo sapiens, UniProt Q07002); conditions: 10 µM; read-out: Activity (%), CDK18/cyclinY(h)
How it was run: as §1

[15] = biological target: panel of human kinases (kinase named in endpoint) (Homo sapiens, UniProt P08581, D1228N); conditions: 10 µM; read-out: Activity (%), Met(D1246N)(h)
How it was run: as §1

[16] = biological target: panel of human kinases (kinase named in endpoint) (Homo sapiens, UniProt Q13131); conditions: 10 µM; read-out: Activity (%), AMPKα1(h)
Sequence of panel of human kinases (kinase named in endpoint) (Homo sapiens, UniProt Q13131) (Q13131 whole entry): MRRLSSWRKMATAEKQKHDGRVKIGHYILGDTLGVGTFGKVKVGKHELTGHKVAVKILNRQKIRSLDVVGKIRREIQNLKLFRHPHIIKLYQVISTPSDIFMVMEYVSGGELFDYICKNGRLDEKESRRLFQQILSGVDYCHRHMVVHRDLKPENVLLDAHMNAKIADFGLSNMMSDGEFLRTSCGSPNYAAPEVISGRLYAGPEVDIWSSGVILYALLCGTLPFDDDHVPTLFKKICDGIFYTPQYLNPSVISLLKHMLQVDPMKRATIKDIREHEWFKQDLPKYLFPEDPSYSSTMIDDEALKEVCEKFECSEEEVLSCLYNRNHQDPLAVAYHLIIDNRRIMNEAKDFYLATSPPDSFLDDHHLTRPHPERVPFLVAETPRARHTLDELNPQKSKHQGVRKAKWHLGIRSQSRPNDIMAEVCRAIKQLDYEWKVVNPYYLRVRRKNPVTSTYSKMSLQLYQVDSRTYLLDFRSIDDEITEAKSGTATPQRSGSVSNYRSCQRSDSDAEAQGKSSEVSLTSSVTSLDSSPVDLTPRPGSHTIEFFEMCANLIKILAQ
How it was run: as §1

[17] = biological target: panel of human kinases (kinase named in endpoint) (Homo sapiens, UniProt P51812); conditions: 10 µM; read-out: Activity (%), Rsk2(h)
How it was run: as §1

[18] = biological target: panel of human kinases (kinase named in endpoint) (Homo sapiens, UniProt Q8IVH8); conditions: 10 µM; read-out: Activity (%), MAP4K3(h)
Sequence of panel of human kinases (kinase named in endpoint) (Homo sapiens, UniProt Q8IVH8) (Q8IVH8 whole entry): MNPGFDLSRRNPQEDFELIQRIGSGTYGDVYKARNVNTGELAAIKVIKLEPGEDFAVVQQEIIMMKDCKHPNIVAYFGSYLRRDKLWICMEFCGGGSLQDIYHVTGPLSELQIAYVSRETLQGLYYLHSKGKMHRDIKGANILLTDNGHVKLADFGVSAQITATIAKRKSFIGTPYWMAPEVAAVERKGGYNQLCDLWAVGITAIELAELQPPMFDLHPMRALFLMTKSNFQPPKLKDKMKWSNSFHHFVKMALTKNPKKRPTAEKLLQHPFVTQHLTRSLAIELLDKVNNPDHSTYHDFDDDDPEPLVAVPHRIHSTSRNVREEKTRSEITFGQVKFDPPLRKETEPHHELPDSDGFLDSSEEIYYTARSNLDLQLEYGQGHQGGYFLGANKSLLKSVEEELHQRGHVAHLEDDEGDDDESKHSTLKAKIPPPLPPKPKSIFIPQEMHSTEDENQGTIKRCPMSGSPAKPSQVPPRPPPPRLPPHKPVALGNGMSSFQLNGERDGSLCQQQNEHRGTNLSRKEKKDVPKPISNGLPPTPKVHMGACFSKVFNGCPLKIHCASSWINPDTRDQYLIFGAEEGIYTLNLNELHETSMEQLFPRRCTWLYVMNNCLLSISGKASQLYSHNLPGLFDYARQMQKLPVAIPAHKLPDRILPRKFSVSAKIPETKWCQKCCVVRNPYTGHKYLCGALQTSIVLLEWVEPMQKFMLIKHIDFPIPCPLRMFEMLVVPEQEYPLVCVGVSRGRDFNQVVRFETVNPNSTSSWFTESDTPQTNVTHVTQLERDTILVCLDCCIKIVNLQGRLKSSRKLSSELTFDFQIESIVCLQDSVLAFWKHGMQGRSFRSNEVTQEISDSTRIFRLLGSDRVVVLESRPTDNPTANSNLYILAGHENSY
How it was run: as §1

[19] = biological target: panel of human kinases (kinase named in endpoint) (Homo sapiens, UniProt Q9NSY1); conditions: 10 µM; read-out: Activity (%), BIKe(h)
How it was run: as §1

[20] = biological target: panel of human kinases (kinase named in endpoint) (Homo sapiens, UniProt O14578); conditions: 10 µM; read-out: Activity (%), CRIK(h)
How it was run: as §1

[21] = biological target: panel of human kinases (kinase named in endpoint) (Homo sapiens, UniProt Q8WU08); conditions: 10 µM; read-out: Activity (%), STK32A(h)
Sequence of panel of human kinases (kinase named in endpoint) (Homo sapiens, UniProt Q8WU08) (Q8WU08 whole entry): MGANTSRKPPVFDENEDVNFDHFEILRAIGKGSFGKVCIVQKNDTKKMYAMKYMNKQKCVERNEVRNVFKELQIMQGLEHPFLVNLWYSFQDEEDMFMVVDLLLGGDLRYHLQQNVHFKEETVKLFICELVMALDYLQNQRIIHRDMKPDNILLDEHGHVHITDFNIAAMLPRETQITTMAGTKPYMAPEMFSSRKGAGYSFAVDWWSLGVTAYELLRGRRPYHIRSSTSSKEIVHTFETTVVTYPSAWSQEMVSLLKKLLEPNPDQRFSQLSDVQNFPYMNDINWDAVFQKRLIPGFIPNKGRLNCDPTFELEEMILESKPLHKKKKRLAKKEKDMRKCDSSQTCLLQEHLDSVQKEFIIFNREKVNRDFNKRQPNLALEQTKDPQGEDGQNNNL
How it was run: as §1

[22] = biological target: panel of human kinases (kinase named in endpoint) (Homo sapiens, UniProt P21802); conditions: 10 µM; read-out: Activity (%), FGFR2(h)
Sequence of panel of human kinases (kinase named in endpoint) (Homo sapiens, UniProt P21802) (P21802 22-821): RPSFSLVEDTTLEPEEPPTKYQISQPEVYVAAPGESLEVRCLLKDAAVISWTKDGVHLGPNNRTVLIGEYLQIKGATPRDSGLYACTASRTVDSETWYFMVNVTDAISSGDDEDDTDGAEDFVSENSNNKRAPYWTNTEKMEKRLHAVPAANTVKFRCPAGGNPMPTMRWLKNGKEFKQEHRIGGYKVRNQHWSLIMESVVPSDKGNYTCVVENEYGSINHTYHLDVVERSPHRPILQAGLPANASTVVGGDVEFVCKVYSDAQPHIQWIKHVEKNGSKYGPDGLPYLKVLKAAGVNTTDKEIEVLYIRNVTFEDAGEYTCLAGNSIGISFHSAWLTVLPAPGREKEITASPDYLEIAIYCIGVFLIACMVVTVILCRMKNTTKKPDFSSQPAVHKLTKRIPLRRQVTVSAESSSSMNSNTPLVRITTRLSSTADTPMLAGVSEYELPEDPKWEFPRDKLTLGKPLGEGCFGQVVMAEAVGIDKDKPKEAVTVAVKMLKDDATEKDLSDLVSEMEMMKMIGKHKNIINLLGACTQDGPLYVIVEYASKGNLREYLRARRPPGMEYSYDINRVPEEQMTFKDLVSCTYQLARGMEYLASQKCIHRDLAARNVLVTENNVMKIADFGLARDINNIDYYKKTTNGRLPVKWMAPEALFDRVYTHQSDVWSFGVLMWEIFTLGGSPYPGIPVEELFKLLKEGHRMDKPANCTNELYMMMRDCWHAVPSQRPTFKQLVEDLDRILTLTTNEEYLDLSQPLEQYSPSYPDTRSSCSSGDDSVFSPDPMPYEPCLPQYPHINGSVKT
How it was run: as §1

[23] = biological target: panel of human kinases (kinase named in endpoint) (Homo sapiens, UniProt Q00534); conditions: 10 µM; read-out: Activity (%), CDK6/cyclinD3(h)
How it was run: as §1

[24] = biological target: panel of human kinases (kinase named in endpoint) (Homo sapiens, UniProt P00533, T790M); conditions: 10 µM; read-out: Activity (%), EGFR(T790M)(h)
How it was run: as §1

[25] = biological target: panel of human kinases (kinase named in endpoint) (Homo sapiens, UniProt Q9BXA7); conditions: 10 µM; read-out: Activity (%), TSSK1(h)
How it was run: as §1

Sequence of panel of human kinases (kinase named in endpoint) (Homo sapiens, UniProt P42685) (P42685 whole entry): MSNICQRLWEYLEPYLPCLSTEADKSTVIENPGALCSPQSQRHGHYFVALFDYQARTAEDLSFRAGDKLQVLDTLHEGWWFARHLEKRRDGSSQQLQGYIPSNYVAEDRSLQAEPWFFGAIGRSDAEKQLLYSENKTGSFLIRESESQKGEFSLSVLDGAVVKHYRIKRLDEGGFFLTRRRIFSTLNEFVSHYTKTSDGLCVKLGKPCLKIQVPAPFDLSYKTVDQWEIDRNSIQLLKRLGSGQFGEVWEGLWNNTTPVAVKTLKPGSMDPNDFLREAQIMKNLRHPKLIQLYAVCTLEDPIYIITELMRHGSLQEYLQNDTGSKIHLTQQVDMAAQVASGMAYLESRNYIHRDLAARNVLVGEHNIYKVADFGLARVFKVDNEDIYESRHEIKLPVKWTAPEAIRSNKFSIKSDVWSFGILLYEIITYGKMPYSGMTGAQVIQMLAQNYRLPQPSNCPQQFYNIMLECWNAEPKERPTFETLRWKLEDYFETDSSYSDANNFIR

CC(C)C(=O)Nc1nc2cc(-c3ccc4c(c3)c(C(=O)NC(C)c3ccccc3)cn4C)ccn2n1 (stereo not shown) [RI-962]
activity at 10 µM [1]: 104%
activity at 10 µM [2]: 86%
activity at 10 µM [3]: 112%
activity at 10 µM [4]: 99%
activity at 10 µM [5]: 71%
activity at 10 µM [6]: 101%
activity at 10 µM [7]: 97%
activity at 10 µM [8]: 108%
activity at 10 µM [9]: 85%
activity at 10 µM [10]: 87%
activity at 10 µM [11]: 85%
activity at 10 µM [12]: 99%
activity at 10 µM [13]: 83%
activity at 10 µM [14]: 119%
activity at 10 µM [15]: 125%
activity at 10 µM [16]: 93%
activity at 10 µM [17]: 106%
activity at 10 µM [18]: 85%
activity at 10 µM [19]: 60%
activity at 10 µM [20]: 101%
activity at 10 µM [21]: 113%
activity at 10 µM [22]: 107%
activity at 10 µM [23]: 92%
activity at 10 µM [24]: 119%
activity at 10 µM [25]: 84%
